Tests used:
Digitaria sanguinalis = assay: Field trial, burndown weed control on grasses; type: in vivo; details: g ai/ha: saflufenacil 140, metribuzin 1150, pendimethalin 500 alone
Method: (§1) Studies were conducted to compare the weed controlling activity of the combination of saflufenacil, a triazine herbicide and pendimethalin. […] Any difference between the observed and “expected” efficacy could be attributed to synergy between the compounds in the control of a broad spectrum of weeds. The expected efficacy of a combination of saflufenacil, a triazine herbicide and an pendimethalin was calculated using the well-established Colby method.
(§2) In the Colby method, the expected (or predicted) response of a combination of herbicides is calculated by taking the product of the observed response for each individual component of the combination when applied alone divided by 100 and subtracting this value from the sum of the observed response for each component when applied alone. An unexpected enhancement in efficacy of the combination is then determined by comparing the observed response of the combination to the expected (or predicted) response as calculated from the observed response of each Individual component alone. If the observed response of the combination is greater than the expected (or predicted) response, or stated conversely, if the difference between the observed and expected response is greater than zero, then the combination is said to be synergistic or unexpectedly effective. (Colby, S. R., Weeds, 1967(15), p. 20-22) The Colby method requires only a single dose of each herbicide applied alone and the mixture of both doses.
(§3) The weed control activity of the individual herbicides of the invention and their combinations were evaluated on weeds such as those belonging to Echinochloa colona, Digitaria sanguinalis, Amaranthus viridis, Commelina benghalensis, and Cyperus rotundus. The trial was carried out in Randomized Complete Block (RCB) method. Each trial was replicated four times and conducted under GEP guidelines. Application volumes were varied for each mixture. Such field trials were carried out at various locations so as to generate independent data, the locations were chosen randomly across India. Saflufenacil, metribuzin and pendimethalin were sprayed according to their recommended dosage.
(§4) The following formula was used to calculate the expected activity of mixtures containing three active ingredients, A, B and C:
(§5) A=observed efficacy of active ingredient A at the same concentration as used in the mixture.
(§6) B=observed efficacy of active ingredient B at the same concentration as used in the mixture.
(§7) C=observed efficacy of active ingredient C at the same concentration as Used in the mixture.

Echinochloa colona = assay: Field trial, burndown weed control on grasses; type: in vivo; details: g ai/ha: saflufenacil 140, metribuzin 1150, pendimethalin 500 alone
Method: as §1, §2, §3, §4, §5, §6, §7

Eleucine indica [1] = assay: Field trial, burndown weed control on grasses; type: in vivo; details: g ai/ha: saflufenacil 140, metribuzin 1150, pendimethalin 500 alone, mixture 140 + 1150 + 500
Method: as §1, §2, §3, §4, §5, §6, §7

Cyperus rotundus = assay: Field trial, burndown weed control on sedges; type: in vivo; details: g ai/ha: saflufenacil 140, metribuzin 1150, pendimethalin 500 alone, mixture 112 + 920 + 571
Method: Studies were conducted to compare the weed controlling activity of the combination of saflufenacil, a triazine herbicide and pendimethalin. […] Any difference between the observed and “expected” efficacy could be attributed to synergy between the compounds in the control of a broad spectrum of weeds. The expected efficacy of a combination of saflufenacil, a triazine herbicide and an pendimethalin was calculated using the well-established Colby method. […] An unexpected enhancement in efficacy of the combination is then determined by comparing the observed response of the combination to the expected (or predicted) response as calculated from the observed response of each Individual component alone. If the observed response of the combination is greater than the expected (or predicted) response, or stated conversely, if the difference between the observed and expected response is greater than zero, then the combination is said to be synergistic or unexpectedly effective. (Colby, S. R., Weeds, 1967(15), p. 20-22) The Colby method requires only a single dose of each herbicide applied alone and the mixture of both doses. The weed control activity of the individual herbicides of the invention and their combinations were evaluated on weeds such as those belonging to Echinochloa colona, Digitaria sanguinalis, Amaranthus viridis, Commelina benghalensis, and Cyperus rotundus. The trial was carried out in Randomized Complete Block (RCB) method. Each trial was replicated four times and conducted under GEP guidelines. Application volumes were varied for each mixture. Such field trials were carried out at various locations so as to generate independent data, the locations were chosen randomly across India. Saflufenacil, metribuzin and pendimethalin were sprayed according to their recommended dosage. The following formula was used to calculate the expected activity of mixtures containing three active ingredients, A, B and C: [formula] • Where A=observed efficacy of active ingredient A at the same concentration as used in the mixture. B=observed efficacy of active ingredient B at the same concentration as used in the mixture. C=observed efficacy of active ingredient C at the same concentration as Used in the mixture.

Digera sp. = assay: Field trial, burndown weed control on broadleaf weeds; type: in vivo; details: g ai/ha: saflufenacil 140, metribuzin 1150, pendimethalin 500 alone, mixture 112 + 920 + 571
Method: as §1, §2, §3, §4, §5, §6, §7

Eleucine indica [2] = assay: Field trial, burndown weed control on grasses; type: in vivo; details: 15 DAA; g ai/ha: saflufenacil 140, metribuzin 1150, pendimethalin 500 alone; mixture 112 + 920 + 571
weeds = details: saflufenacil alone; cited from earlier work
[3] = 15 DAA, mixture 112 + 920 + 571
[4] = 15 DAA, mixture 140 + 1150 + 500
[5] = Table 3, 30 DAA, mixture 140 + 1150 + 500
[6] = Table 4, 30 DAA, mixture 140 + 1150 + 500

Row | SMILES | % Weed control Burn Down Symptoms Generation, Digitaria sanguinalis, Actual (Digitaria sanguinalis; [3]) [%] | % Weed control Burn Down Symptoms Generation, Digitaria sanguinalis, Actual (Digitaria sanguinalis; [4]) [%] | % Weed control Burn Down Symptoms Generation, Digitaria sanguinalis, Actual (Digitaria sanguinalis; [5]) [%] | % Weed control Burn Down Symptoms Generation, Digitaria sanguinalis, Actual (Digitaria sanguinalis; [6]) [%] | % Weed control Burn Down Symptoms Generation, Echinochloa colona, Actual (Echinochloa colona; [3]) [%] | % Weed control Burn Down Symptoms Generation, Echinochloa colona, Actual (Echinochloa colona; [4]) [%] | % Weed control Burn Down Symptoms Generation, Echinochloa colona, Actual (Echinochloa colona; [5]) [%] | % Weed control Burn Down Symptoms Generation, Echinochloa colona, Actual (Echinochloa colona; [6]) [%] | % Weed control Burn Down Symptoms Generation, Eleucine indica, Actual (Eleucine indica [1]; 15 DAA) [%] | % Weed control Burn Down Symptoms Generation, Eleucine indica, Actual (Eleucine indica [1]; Table 3, 30 DAA) [%] | % Weed control Burn Down Symptoms Generation, Eleucine indica, Actual (Eleucine indica [1]; Table 4, 30 DAA) [%] | % Weed control Burn Down Symptoms Generation, Cyperus rotundus at 15 DAA, Actual (Cyperus rotundus) [%] | % Weed control Burn Down Symptoms Generation, Cyperus rotundus at 30 DAA, Actual (Cyperus rotundus) [%] | % Weed control Burn Down Symptoms Generation, Digera sp. at 15 DAA, Actual (Digera sp.) [%] | % Weed control Burn Down Symptoms Generation, Digera sp. at 30 DAA, Actual (Digera sp.) [%] | % Weed control Burn Down Symptoms Generation, Eleucine indica, Actual (Eleucine indica [2]) [%] | Efficacy in weed control beyond 30 days after treatment (weeds)
1 | CSc1nnc(C(C)(C)C)c(=O)n1N [Metribuzin, 4-amino-6-tert-butyl-4,5-dihydro-3-methylthio-1,2,4-triazin-5-one] | 13.3 | 13.3 | 10 | 10 | 6.7 | 6.7 | 10 | 10 | 8.3 | 5.7 | 5.7 | 6.7 | 8.3 | 8.3 | 8.3 | 8.3 | 
2 | CC(C)N(C)S(=O)(=O)NC(=O)c1cc(-n2c(=O)cc(C(F)(F)F)n(C)c2=O)c(F)cc1Cl [Saflufenacil, N′-{2-chloro-4-fluoro-5-[1,2,3,6-tetrahydro-3-methyl-2,6-dioxo-4-(trifluoromethyl)pyrimidin-1-yl]benzoyl}-N-isopropyl-N-methylsulfamide] | 56.7 | 56.7 | 13.3 | 13.3 | 8.3 | 8.3 | 13 | 13 | 13.3 | 9.3 | 9.3 | 15 | 20 | 69.7 | 68.3 | 13.3 | reduced efficacy
3 | CCC(CC)Nc1c([N+](=O)[O-])cc(C)c(C)c1[N+](=O)[O-] [Pendimethalin, N-(1-ethylpropyl)-2,6-dinitro-3,4-xylidine] | 56.7 | 56.7 | 50 | 50 | 58.3 | 58.3 | 53.3 | 53.3 | 46.7 | 45 | 45 | 31.7 | 25 | 66.7 | 7.0 | 46.7 | 
